Data reported in patent US6821991B2, “2-substituted thiazolidinones as β-3 adrenergic receptor agonists” (Wyeth, priority 2000, dated 2004).

Columns and labels:
[1] = target: T1, β3-adrenergic receptor (Homo sapiens, UniProt P13945); experiment: cAMP accumulation (SPA) in CHO cells transfected with human β3 adrenergic receptor; type: cell-based; details: for EC50: CHO cells expressing human β3-AR, cAMP, 30 min, 37° C., 10^-9 M to 10^-5 M; for IA(β3): maximal response relative to maximal response of isoproterenol at 10^-5 M
T1 construct: Full length β3 AR clones (402 amino acids) containing the last 6 amino acids of hβ3-AR are prepared; expressed in transfected cells; host or cells: CHO (Chinese hamster ovary) cells
T1 sequence (P13945 whole entry): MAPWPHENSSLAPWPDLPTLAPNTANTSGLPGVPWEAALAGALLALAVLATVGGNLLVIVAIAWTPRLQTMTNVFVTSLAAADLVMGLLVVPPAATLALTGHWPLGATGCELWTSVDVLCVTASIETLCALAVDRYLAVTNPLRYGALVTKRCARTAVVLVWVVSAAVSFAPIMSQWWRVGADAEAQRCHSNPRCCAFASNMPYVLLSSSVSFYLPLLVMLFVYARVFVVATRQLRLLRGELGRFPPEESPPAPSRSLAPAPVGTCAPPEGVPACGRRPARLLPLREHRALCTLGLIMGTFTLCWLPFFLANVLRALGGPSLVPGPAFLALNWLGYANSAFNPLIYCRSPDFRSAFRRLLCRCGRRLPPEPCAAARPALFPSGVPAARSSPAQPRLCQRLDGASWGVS
Description: The ability of compounds of this invention to treat or inhibit disorders related to insulin resistance or hyperglycemia was established with representative compounds of this invention in the following standard pharmacological test procedures, which measured the binding selectivity to the β1, β2, and β3 adrenergic receptors. Binding to the receptors was measured in Chinese Hamster ovary (CHO) cells that were transfected with adrenergic receptors.
Cloning of Human β3-AR Genomic DNA: CDNA was constructed by ligating four polymerase chain reaction (PCR) products using the following primers: an ATG-Narl fragment, sense primer 5′-[…]3′, and anti-sense primer 5′[…]3′; a Narl-Accl fragment, 5′[…]3′ as sense and 5′[…]3′ as anti-sense primer; an Accli-Styl fragment, sense primer 5′[…]3′ and anti-sense primer 5′[…]3′ and a Styl-TAG fragment, with sense primer 5′[…]3′ and anti-sense primer 5′[…]3′. The corresponding primer sequences are described in Mantzoros, C. […] The four fragments are ligated into a pUC 18 plasmid (Gibco-BRL) and sequenced.
Binding Procedure: Clones expressing receptor levels of 70 to 110 fmoles/mg protein were used in the test procedures. CHO cells were grown in 24-well tissue culture plates in Dulbecco's Modified Eagle Media with 10% fetal bovine serum, MEM non-essential amino acids, Penicillin-Streptompycin and Geneticin. On the day of test procedure, growth medium was replaced with preincubation media (Dulbecco's Modified Eagle Media) and incubated for 30 minutes at 37° C. […] Test compounds were tested over a concentration range of 10^−9 M to 10^−5 M for β3 cells and 10^−8 to 10^−4 M for β1 and β2 transfected cells. Isoproterenol (10^−5 M) was used as an internal standard for comparison of activity. Cells were incubated at 37° C. on a rocker for 30 min with the β3 cells and 15 min for β1 and β2 cells. Incubation was stopped with the addition of 0.2N HCl and neutralized with 2.5N NaOH. The plates, containing the cells and neutralized media, were stored at −20 degrees celsius until ready to test for cAMP using the SPA test kit (Amersham).
Data Analysis and Results: Data collected from the SPA test procedure were analyzed as per cent of the maximal isoproterenol response at 10^−5 M. Activity curves were plotted using the SAS statistical and graphics software.

Row | melting point | EC50 [1] [nM] | IA(β3) [1] | SMILES
1 | > 160 °C (dec.) | 9 | 1.0 | CNC1=NC(=O)C(=Cc2ccc(N3CCC(NC[C@H](O)COc4cccc5[nH]c(=O)[nH]c45)CC3)cc2)S1 [Example 1, 4-((2S)-2-Hydroxy-3-{1-[4-(2-methylamino-4-oxo-4H-thiazol-5-ylidenemethyl)-phenyl]-piperidin-4-ylamino}-propoxy)-1,3-dihydrobenzoimidazol-2-one]
2 | > 140 °C (dec.) | 22 | 1.0 | O=C1N=C(NCCN2CCOCC2)SC1=Cc1ccc(N2CCC(NC[C@H](O)COc3cccc4[nH]c(=O)[nH]c34)CC2)cc1 [Example 2, 4-[(2S)-2-Hydroxy-3-(1-{4-[2-(2-morpholin-4-ylethylamino)-4-oxo-4H-thiazol-5-ylidenemethyl]-phenyl}-piperidin-4-ylamino)-propoxy]-1,3-dihydrobenzoimidazol-2-one]
3 | > 165 °C (dec.) | 30 | 0.52 | O=C1N=C(NC2CCN(Cc3ccccc3)CC2)SC1=Cc1ccc(N2CCC(NC[C@H](O)COc3cccc4[nH]c(=O)[nH]c34)CC2)cc1 [Example 3, 4-[(2S)-3-(1-{4-[2-(1-Benzyl-piperidin-4-ylamino)-4-oxo-4H-thiazol-5-ylidenemethyl]-phenyl}-piperidin-4-ylamino)-2-hydroxy-propoxy]-1,3-dihydro-benzoimidazol-2-one]
4 | > 120 °C (dec.) | 8 | 0.75 | CCOC(=O)CCNC1=NC(=O)C(=Cc2ccc(N3CCC(NC[C@H](O)COc4cccc5[nH]c(=O)[nH]c45)CC3)cc2)S1 [Example 8, 3-[5-(4-{4-[(2S)-2-Hydroxy-3-(2-oxo-2,3-dihydro-1H-benzoimidazol-4-yloxy)-propylamino]-piperidin-1-yl}-benzylidene)-4-oxo-4,5-dihydro-thiazol-2-ylamino]-propionic acid ethyl ester]
5 |  | 7 | 0.81 | O=C(O)CCNC1=NC(=O)C(=Cc2ccc(N3CCC(NC[C@H](O)COc4cccc5[nH]c(=O)[nH]c45)CC3)cc2)S1 [Example 9, 3-[5-(4-{4-[(2S)-2-Hydroxy-3-(2-oxo-2,3-dihydro-1H-benzoimidazol-4-yloxy)-propylamino]-piperidin-1-yl}-benzylidene)-4-oxo-4,5-dihydro-thiazol-2-ylamino]-propionic acid]
6 | 201 to 213 °C (dec.) | 19 | 0.69 | O=C1N=C(NO)SC1=Cc1ccc(N2CCC(NC[C@H](O)COc3cccc4[nH]c(=O)[nH]c34)CC2)cc1 [Example 10, 4-((2S)-2-Hydroxy-3-{1-[4-(2-hydroxyamino-4-oxo-4H-thiazol-5-ylidenemethyl)-phenyl]-piperidin-4-ylamino}-propoxy)-1,3-dihydro-benzoimidazol-2-one]
7 | > 150 °C (dec.) | 3 | 0.89 | O=C1N=C(N2CCOCC2)SC1=Cc1ccc(N2CCC(NC[C@H](O)COc3cccc4[nH]c(=O)[nH]c34)CC2)cc1 [Example 18, 4-((2S)-2-Hydroxy-3-{1-[4-(2-morpholin-4-yl-4-oxo-4H-thiazol-5-ylidenemethyl)-phenyl]-piperidin-4-ylamino}-propoxy)-1,3-dihydro-benzoimidazol-2-one]
8 | > 150 °C (dec.) |  |  | CN1CCN(C2=NC(=O)C(=Cc3ccc(N4CCC(NC[C@H](O)COc5cccc6[nH]c(=O)[nH]c56)CC4)cc3)S2)CC1 [Example 19, 4-[(2S)-2-Hydroxy-3-(1-{4-[2-(4-methyl-piperazin-1-yl)-4-oxo-4H-thiazol-5-ylidenemethyl]-phenyl}-piperidin-4-ylamino)-propoxy]-1,3-dihydro-benzoimidazol-2-one]
9 | > 100 °C (dec.) | 76 | 0.78 | O=C1N=C(N2CCOCC2)SC1=Cc1ccc(N2CCC(NC[C@H](O)COc3ccc(O)cc3)CC2)cc1 [Example 23, 5-(4-{4-[(2S)-2-Hydroxy-3-(4-hydroxy-phenoxy)-propylamino]-piperidin-1-yl}-benzylidene)-2-morpholin-4-yl-thiazol-4-one]
10 | > 210 °C (dec.) | 1920 | 1.0 | CN1CCN(C2=NC(=O)C(=Cc3ccc(N4CCC(NC[C@H](O)COc5ccc(O)cc5)CC4)cc3)S2)CC1 [Example 24, 5-(4-{4-[(2S)-2-Hydroxy-3-(4-hydroxy-phenoxy)-propylamino]-piperidin-1-yl}-benzylidene)-2-(4-methyl-piperazin-1-yl)-thiazol-4-one]

The next lines start with the molecule.

Row | SMILES | melting point | EC50 [1] [nM] | IA(β3) [1]
11 | O=C1N=C(NC2CCN(Cc3ccccc3)CC2)SC1=Cc1ccc(N2CCC(NC[C@H](O)COc3ccc(O)cc3)CC2)cc1 [Example 4, 2-(1-Benzyl-piperidin-4-ylamino)-5-(4-{(2S)-4-[2-hydroxy-3-(4-hydroxy-phenoxy)-propylamino]-piperidin-1-yl}-benzylidene)-thiazol-4-one] | > 175 °C (dec.) | 230 | 0.6
12 | O=C1N=C(N2CCCCC2)SC1=Cc1ccc(N2CCC(NC[C@H](O)COc3ccc(O)cc3)CC2)cc1 [Example 16, 5-(4-{4-[(2S)-2-Hydroxy-3-(4-hydroxy-phenoxy)-propylamino]-piperidin-1-yl}-benzylidene)-2-piperidin-1-yl-thiazol-4-one] | > 85 °C (dec.) | 75 | 0.96
13 | Cl.Cl.O=C1N=C(N2CCOCC2)SC1=Cc1ccc(N2CCC(NC[C@H](O)COc3ccccc3)CC2)cc1 [Example 22, 5-{4-[4-((2S)-2-Hydroxy-3-phenoxy-propylamino)-piperidin-1-yl]-benzylidene}-2-morpholin-4-yl-thiazol-4-one dihydrochloride salt] | > 160 °C (dec.) | 40 | 0.58
14 | O=C1N=C(N2CCOCC2)SC1=Cc1ccc(N2CCC(NC[C@H](O)c3cccc(Cl)c3)CC2)cc1 [Example 25, 5-(4-{4-[(2R)-2-(3-Chloro-phenyl)-2-hydroxy-ethylamino]-piperidin-1-yl}-benzylidene)-2-morpholin-4-yl-thiazol-4-one] | > 70 °C (dec.) | 450 | 0.51
15 | Cl.O=C1N=C(N2CCCCC2)SC1=Cc1ccc(OCCNC[C@H](O)COc2ccc(O)cc2)cc1 [Example 31, 5-(4-{2-[(2S)-2-Hydroxy-3-(4-hydroxy-phenoxy)-propylamino]-ethoxy}-benzylidene)-2-piperidin-1-yl-thiazol-4-one hydrochloride salt] |  | 210 | 0.84
16 | Cl.O=C1N=C(N2CCCCC2)SC1=Cc1ccc(OCCNC[C@H](O)COc2ccccc2)cc1 [Example 32, 5-{4-[2-((2S)-2-Hydroxy-3-phenoxy-propylamino)-ethoxy]-benzylidene}-2-piperidin-1-yl-thiazol-4-one hydrochloride salt] |  | 88 | 0.33
17 | CS(=O)(=O)Nc1cc(C(O)CNCCOc2ccc(C=C3SC(N4CCCCC4)=NC3=O)cc2)ccc1O (stereo not drawn) [Example 33, N-[2-Hydroxy-5-(1-hydroxy-2-{2-[4-(4-oxo-2-piperidin-1-yl-4H-thiazol-5-ylidenemethyl)-phenoxy]-ethylamino}-ethyl)-phenyl]-methanesulfonamide] |  | 2 | 0.86
